Source: ChEMBL document CHEMBL1135618, “Design and pharmacology of N-[(3R)-1,2,3,4-tetrahydroisoquinolinium- 3-ylcarbonyl]-(1R)-1-(4-chlorobenzyl)- 2-[4-cyclohexyl-4-(1H-1,2,4-triazol- 1-ylmethyl)piperidin-1-yl]-2-oxoethylamine (1), a potent, selective, melanocortin subtype-4 receptor agonist” (J Med Chem, 2002)
One block for each molecule: values may come before it.

Columns and labels:
Melanocortin receptor 4 [1] = target: T1, Melanocortin receptor 4 (Homo sapiens, UniProt P32245); experiment: Evaluated for Functional Activity at Melanocortin-4 receptor as effective concentration at 50% maximum CMP accumulation
T1 sequence (P32245 whole entry): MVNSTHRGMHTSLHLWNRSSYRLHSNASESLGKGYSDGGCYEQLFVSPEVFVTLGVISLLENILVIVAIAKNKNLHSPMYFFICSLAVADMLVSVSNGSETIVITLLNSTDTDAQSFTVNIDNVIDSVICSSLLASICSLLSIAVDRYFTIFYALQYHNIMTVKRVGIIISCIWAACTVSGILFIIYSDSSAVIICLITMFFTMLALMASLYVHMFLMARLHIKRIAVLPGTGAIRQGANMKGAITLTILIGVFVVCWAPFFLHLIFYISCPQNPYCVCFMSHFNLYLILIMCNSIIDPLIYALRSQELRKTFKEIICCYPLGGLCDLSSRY

Melanocortin receptor 3 [2] = target: T2, Melanocortin receptor 3 (Homo sapiens, UniProt P41968); experiment: Maximum percentage of cAMP accumulation at 10 uM relative to alpha-MSH at MC3R; assay type: functional
T2 sequence (P41968 whole entry): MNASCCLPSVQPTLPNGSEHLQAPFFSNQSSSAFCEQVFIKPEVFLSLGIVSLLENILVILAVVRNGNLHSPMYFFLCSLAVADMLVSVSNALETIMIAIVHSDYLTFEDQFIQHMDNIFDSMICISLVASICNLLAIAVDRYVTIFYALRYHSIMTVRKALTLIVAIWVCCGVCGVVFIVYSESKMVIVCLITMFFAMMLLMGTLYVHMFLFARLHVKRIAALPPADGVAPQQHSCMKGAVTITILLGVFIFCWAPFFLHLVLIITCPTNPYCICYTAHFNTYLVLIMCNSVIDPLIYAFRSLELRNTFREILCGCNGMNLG

Melanocortin receptor 5 [3] = target: T3, Melanocortin receptor 5 (Homo sapiens, UniProt P33032); experiment: Maximum percentage of cAMP accumulation at 10 uM relative to alpha-MSH at MC5R; assay type: functional
T3 sequence (P33032 whole entry): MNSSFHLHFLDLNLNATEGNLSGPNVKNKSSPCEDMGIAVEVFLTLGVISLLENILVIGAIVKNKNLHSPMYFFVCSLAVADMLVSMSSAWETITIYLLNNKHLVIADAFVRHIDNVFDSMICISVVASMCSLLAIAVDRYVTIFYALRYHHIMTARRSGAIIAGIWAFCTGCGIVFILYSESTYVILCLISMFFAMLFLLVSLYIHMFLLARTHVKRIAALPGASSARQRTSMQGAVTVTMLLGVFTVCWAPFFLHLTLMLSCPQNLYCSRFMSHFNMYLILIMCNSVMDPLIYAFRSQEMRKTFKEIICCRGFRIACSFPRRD

Melanocortin receptor 4 [4] = target: T1, Melanocortin receptor 4; experiment: Maximum percent cAMP accumulation at 10 uM relative to alpha-MSH at Melanocortin-4 receptor; assay type: functional
[5] = Percent bioavailability in rat evaluated at a dose 1 mg/kg (intravenous) and 10 mg/kg administered orally and was evaluated for; assay type: ADME, organism-based; settings: in vivo, po
[6] = Evaluated for Plasma clearance in dog at dose 0.2 mg/kg (intravenous) and 0.5 mg/kg administered orally; assay type: ADME, organism-based, Canis lupus familiaris
[7] = Evaluated for plasma clearance in rat at a dose 1 mg/kg (intravenous) and 10 mg/kg administered orally; assay type: ADME, organism-based
[8] = Evaluated for half life in dog at dose 0.2 mg/kg (intravenous) and 0.5 mg/kg administered orally; assay type: ADME, organism-based, Canis lupus familiaris; settings: in vivo
[9] = Volume of distribution evaluated at a dose 1 mg/kg (intravenous) and 10 mg/kg administered orally in rat; assay type: functional, organism-based
[10] = Evaluated for % bioavailability in dogat a dose 0.2 mg/kg (intravenous) and 0.5 mg/kg administered orally; assay type: ADME, organism-based, Canis lupus familiaris; settings: dog, in vivo, po
[11] = Evaluated for maximum time Tmax in dog at dose 0.2 mg/kg (intravenous) and 0.5 mg/kg administered orally; assay type: functional, organism-based
[12] = Evaluated for maximum time Tmax in rat at a dose 1 mg/kg (intravenous) and 10 mg/kg administered orally; assay type: functional, organism-based
Melanocortin receptor 5 [13] = target: T3, Melanocortin receptor 5; experiment: Evaluated for Functional Activity at MC5R as effective concentration at 50% maximum CMP accumulation
Melanocortin receptor 5 [14] = target: T3, Melanocortin receptor 5; experiment: Functional activity as concentration at 50% maximum cAMP accumulation in human […] (MC5R) receptor
Melanocortin receptor 4 [15] = target: T4, Melanocortin receptor 4 (Rattus norvegicus, UniProt P70596); experiment: Functional activity as concentration at 50% maximum cAMP accumulation in rat Melanocortin-4 receptor (rMC4R)
T4 sequence (P70596 whole entry): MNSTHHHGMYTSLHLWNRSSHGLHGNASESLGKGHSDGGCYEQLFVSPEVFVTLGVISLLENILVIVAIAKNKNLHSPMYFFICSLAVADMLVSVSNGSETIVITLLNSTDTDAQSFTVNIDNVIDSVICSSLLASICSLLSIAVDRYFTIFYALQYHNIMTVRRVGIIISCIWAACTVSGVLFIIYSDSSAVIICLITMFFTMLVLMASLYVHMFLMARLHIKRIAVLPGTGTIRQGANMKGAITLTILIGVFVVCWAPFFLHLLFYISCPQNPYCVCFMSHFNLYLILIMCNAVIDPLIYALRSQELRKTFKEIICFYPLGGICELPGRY

Melanocortin receptor 4 [16] = target: T4, Melanocortin receptor 4; experiment: Evaluated for binding affinity against rat Melanocortin-4 receptor (rMC4R) by displacing [125I]NDP-alpha-MSH radioligand expressed in CHO cells; assay type: cell-based
Melanocortin receptor 5 [17] = target: T5, Melanocortin receptor 5 (Rattus norvegicus, UniProt P35345); experiment: Functional activity as concentration at 50% maximum cAMP accumulation in rat Melanocortin-5 receptor (rMC5R)
T5 sequence (P35345 whole entry): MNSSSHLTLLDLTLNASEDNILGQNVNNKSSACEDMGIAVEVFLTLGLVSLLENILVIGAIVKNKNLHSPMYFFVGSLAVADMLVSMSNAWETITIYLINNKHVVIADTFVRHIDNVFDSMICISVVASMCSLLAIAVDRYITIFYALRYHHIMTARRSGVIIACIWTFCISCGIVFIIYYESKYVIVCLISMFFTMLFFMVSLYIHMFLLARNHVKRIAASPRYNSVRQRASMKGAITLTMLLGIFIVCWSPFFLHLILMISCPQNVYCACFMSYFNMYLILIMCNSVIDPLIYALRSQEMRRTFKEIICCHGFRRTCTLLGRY

Melanocortin receptor 5 [18] = target: T5, Melanocortin receptor 5; experiment: Evaluated for binding affinity against rat Melanocortin-5 receptor (rMC5R) by displacing [125I]NDP-alpha-MSH radioligand expressed in CHO cells; assay type: cell-based
[19] = target: Melanocortin receptor 3 (Rattus norvegicus) (UniProt P32244); experiment: Percentage of cAMP accumulation at 10 uM relative to alpha-MSH at rat Melanocortin-3 receptor; assay type: functional
Chain of Melanocortin receptor 3 (Rattus norvegicus) (P32244 whole entry): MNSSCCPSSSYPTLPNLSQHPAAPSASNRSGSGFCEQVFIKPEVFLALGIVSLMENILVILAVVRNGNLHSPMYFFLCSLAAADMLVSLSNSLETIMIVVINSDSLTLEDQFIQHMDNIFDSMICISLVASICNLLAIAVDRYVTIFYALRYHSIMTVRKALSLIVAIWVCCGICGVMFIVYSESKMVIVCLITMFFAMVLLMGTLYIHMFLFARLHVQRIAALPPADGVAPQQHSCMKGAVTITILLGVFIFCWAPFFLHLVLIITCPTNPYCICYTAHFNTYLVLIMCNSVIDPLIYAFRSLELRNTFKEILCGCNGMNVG

Melanocortin receptor 3 [20] = target: T6, Melanocortin receptor 3 (Rattus norvegicus, UniProt P32244); experiment: Functional activity as concentration at 50% maximum cAMP accumulation in rat Melanocortin-3 receptor (rMC3R)
T6 sequence (P32244 whole entry): as above

Melanocortin receptor 5 [21] = target: T3, Melanocortin receptor 5; experiment: Evaluated for binding affinity against human melanocortin 5 (hMC5R) receptor by displacing [125I]NDP-alpha-MSH radioligand expressed in CHO cells; assay type: cell-based
Melanocortin receptor 3 [22] = target: T6, Melanocortin receptor 3; experiment: Evaluated for binding affinity against rat Melanocortin-3 receptor (rMC3R) by displacing [125I]-NDP-alpha-MSH radioligand expressed in CHO cells; assay type: cell-based
[23] = Half life in rat evaluated at a dose 1 mg/kg (intravenous) and 10 mg/kg administered orally and was evaluated for; assay type: ADME, organism-based; settings: in vivo
[24] = target: Melanocortin receptor 5 (Rattus norvegicus) (UniProt P35345); experiment: Percentage of cAMP accumulation at 10 uM relative to alpha-MSH at rat Melanocortin-5 receptor; assay type: functional
Chain of Melanocortin receptor 5 (Rattus norvegicus) (P35345 whole entry): as the sequence (P35345 whole entry) above

[25] = target: Melanocortin receptor 4 (Rattus norvegicus) (UniProt P70596); settings: 10 uM
Chain of Melanocortin receptor 4 (Rattus norvegicus) (P70596 whole entry): as the sequence (P70596 whole entry) above
Description: Percentage of cAMP accumulation at 10 uM relative to alpha-MSH at rat Melanocortin-4 receptor

Melanocortin receptor 5 [26] = target: T3, Melanocortin receptor 5; settings: 10 uM
Description: Percentage of cAMP accumulation at 10 uM relative to alpha-MSH at human Melanocortin 5 receptor

Melanocortin receptor 3 [27] = target: T2, Melanocortin receptor 3; settings: 10 uM
Description: Percentage of cAMP accumulation at 10 uM relative to alpha-MSH at human Melanocortin-3 receptor

[28] = target: Melanocyte-stimulating hormone receptor (Homo sapiens) (UniProt Q01726); settings: 10 uM
Chain of Melanocyte-stimulating hormone receptor (Homo sapiens) (Q01726 whole entry, looked up): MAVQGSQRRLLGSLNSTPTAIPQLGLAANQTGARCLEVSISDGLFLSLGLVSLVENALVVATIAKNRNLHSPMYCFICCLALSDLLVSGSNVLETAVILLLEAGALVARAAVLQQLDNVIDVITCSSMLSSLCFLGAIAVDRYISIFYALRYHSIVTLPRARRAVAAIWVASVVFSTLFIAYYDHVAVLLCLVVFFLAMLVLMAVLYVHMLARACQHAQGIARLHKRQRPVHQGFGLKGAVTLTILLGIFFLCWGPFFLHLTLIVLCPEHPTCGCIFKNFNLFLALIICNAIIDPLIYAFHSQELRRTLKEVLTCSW
Description: Percentage of cAMP accumulation at 10 uM relative to alpha-MSH at hMC1R

[29] = Volume of distribution evaluated at a dose 0.2 mg/kg (intravenous) and 0.5 mg/kg administered orally in dog
Melanocortin receptor 4 [30] = target: T1, Melanocortin receptor 4
Description: Evaluated for binding affinity against Melanocortin-4 receptor by displacing [125I]-NDP-alpha-MSH radioligand expressed in CHO cells

Melanocortin receptor 3 [31] = target: T2, Melanocortin receptor 3; experiment: Evaluated for Functional Activity at MC3R as effective concentration at 50% maximum CMP accumulation
[32] = target: Melanocortin receptor (M3 and M4) (Homo sapiens) (UniProt P32245+P41968); experiment: Evaluated for selectivity for MC3R versus MC4R displacing [125I]NDP-alpha-MSH radioligand expressed in CHO cells; assay type: cell-based
[33] = system: Melanocortin receptor 5 + Melanocortin receptor 4 (Homo sapiens); experiment: Evaluated for selectivity for MC5R versus MC4R displacing [125I]NDP-alpha-MSH radioligand expressed in CHO cells
Melanocortin receptor 3 [34] = target: T2, Melanocortin receptor 3; experiment: Evaluated for Functional Activity at MC3R as % of cAMP accumulation at 10 uM relative to alpha-MSH

EC50 (Melanocortin receptor 4 [1]): 500 nM
SMILES: CS(=O)(=O)N1CC2(CCN(C(=O)[C@@H](Cc3ccccc3)NC(=O)[C@@H](N)Cc3c[nH]cn3)CC2)c2ccccc21

Activity (Melanocortin receptor 3 [2]): 1%
Activity (Melanocortin receptor 5 [3]): 2%
Activity (Melanocortin receptor 4 [4]): 9%
SMILES: O=C(N[C@@H](Cc1ccc(Cl)cc1)C(=O)N1CCC(Cn2cncn2)(C2CCCCC2)CC1)[C@H]1Cc2ccccc2CN1

bioavailability [5]: 14%
clearance [6]: 27.6 mL/min/kg
clearance [7]: 84 mL/min/kg
half-life [8]: 72 min
bioavailability [10]: 16%
Activity (Melanocortin receptor 3 [2]): 32%
Activity (Melanocortin receptor 5 [3]): 61%
EC50 (Melanocortin receptor 5 [13]): 736 nM
EC50 (Melanocortin receptor 5 [14]): 737 nM
EC50 (Melanocortin receptor 4 [15]): 2.9 nM
IC50 (Melanocortin receptor 4 [16]): 0.6 nM
EC50 (Melanocortin receptor 5 [17]): > 3 µM
IC50 (Melanocortin receptor 5 [18]): 1570 nM
Activation [19]: 65%
EC50 (Melanocortin receptor 3 [20]): 1320 nM
IC50 (Melanocortin receptor 5 [21]): 326 nM
IC50 (Melanocortin receptor 3 [22]): 1880 nM
half-life [23]: 36 min
Activation [24]: 58%
Activation [25]: 99%
Activation (Melanocortin receptor 5 [26]): 61%
Activation (Melanocortin receptor 3 [27]): 32%
Activation [28]: 95%
SMILES: O=C(N[C@H](Cc1ccc(Cl)cc1)C(=O)N1CCC(Cn2cncn2)(C2CCCCC2)CC1)[C@H]1Cc2ccccc2CN1
Vdss [9]: 3.6 L/kg
Tmax [11]: 1.5 h
Tmax [12]: 1 h
Vdss [29]: 2.79 L/kg

IC50 (Melanocortin receptor 4 [30]): 108 nM
SMILES: CS(=O)(=O)N1CC2(CCN(C(=O)[C@@H](Cc3ccc4ccccc4c3)NC(=O)[C@@H](N)Cc3cnc[nH]3)CC2)c2ccccc21

Activity (Melanocortin receptor 3 [2]): 50%
EC50 (Melanocortin receptor 3 [31]): 59 nM
Activity (Melanocortin receptor 5 [3]): 51%
EC50 (Melanocortin receptor 5 [13]): 127 nM
Activity (Melanocortin receptor 4 [4]): 103%
EC50 (Melanocortin receptor 4 [1]): 0.6 nM
Selectivity [32]: 277
IC50 (Melanocortin receptor 4 [30]): 0.3 nM
Selectivity [33]: 100
SMILES: Cn1nnnc1CC1(C2CCCCC2)CCN(C(=O)[C@@H](Cc2ccc(Cl)cc2)NC(=O)[C@H]2Cc3ccccc3CN2)CC1

Activity (Melanocortin receptor 3 [2]): 10%
Activity (Melanocortin receptor 5 [3]): 15%
Activity (Melanocortin receptor 4 [4]): 79%
EC50 (Melanocortin receptor 4 [1]): 771 nM
Selectivity [32]: 53
IC50 (Melanocortin receptor 4 [30]): 238 nM
Selectivity [33]: 19
SMILES: O=C(N[C@H](Cc1ccc(Cl)cc1)C(=O)N1CCC(Cc2nnn[nH]2)(C2CCCCC2)CC1)[C@H]1Cc2ccccc2CN1

Activity (Melanocortin receptor 3 [2]): 4%
Activity (Melanocortin receptor 5 [3]): 5%
Activity (Melanocortin receptor 4 [4]): 34%
SMILES: O=C(N[C@@H](Cc1ccc(Cl)cc1)C(=O)N1CCC(Cn2cncn2)(C2CCCCC2)CC1)[C@@H]1Cc2ccccc2CN1

Activity (Melanocortin receptor 3 [2]): 7%
Activity (Melanocortin receptor 5 [3]): 19%
EC50 (Melanocortin receptor 5 [13]): 271 nM
Activity (Melanocortin receptor 4 [4]): 67%
SMILES: O=C(N[C@H](Cc1ccc(Cl)cc1)C(=O)N1CCC(Cn2cncn2)(C2CCCCC2)CC1)[C@@H]1Cc2ccccc2CN1

Activity (Melanocortin receptor 3 [34]): 24%
EC50 (Melanocortin receptor 5 [13]): 1000 nM
Activity (Melanocortin receptor 4 [4]): 87%
EC50 (Melanocortin receptor 4 [1]): 9.6 nM
IC50 (Melanocortin receptor 4 [30]): 1.2 nM
SMILES: Cn1nnc(CC2(C3CCCCC3)CCN(C(=O)[C@@H](Cc3ccc(Cl)cc3)NC(=O)[C@H]3Cc4ccccc4CN3)CC2)n1
